Assay results taken from patent US11572590B2, “Methods for evaluating tumor cell spheroids using 3D microfluidic cell culture device” (Dana-Farber Cancer Institute, Inc., priority 2017, dated 2023).
Where two headings read alike, the source gives them in different places.

Tests used:
Assay in all cases: SelectScreen Kinase Profiling, single point inhibition and IC50 for off-target kinases
Format in all cases: biochemical
off-target kinases [1] = biological target: off-target kinases (Homo sapiens, UniProt P36894); conditions: BMPR1A (ALK3), LanthaScreen Binding
Chain of off-target kinases (Homo sapiens, UniProt P36894) (P36894 24-532): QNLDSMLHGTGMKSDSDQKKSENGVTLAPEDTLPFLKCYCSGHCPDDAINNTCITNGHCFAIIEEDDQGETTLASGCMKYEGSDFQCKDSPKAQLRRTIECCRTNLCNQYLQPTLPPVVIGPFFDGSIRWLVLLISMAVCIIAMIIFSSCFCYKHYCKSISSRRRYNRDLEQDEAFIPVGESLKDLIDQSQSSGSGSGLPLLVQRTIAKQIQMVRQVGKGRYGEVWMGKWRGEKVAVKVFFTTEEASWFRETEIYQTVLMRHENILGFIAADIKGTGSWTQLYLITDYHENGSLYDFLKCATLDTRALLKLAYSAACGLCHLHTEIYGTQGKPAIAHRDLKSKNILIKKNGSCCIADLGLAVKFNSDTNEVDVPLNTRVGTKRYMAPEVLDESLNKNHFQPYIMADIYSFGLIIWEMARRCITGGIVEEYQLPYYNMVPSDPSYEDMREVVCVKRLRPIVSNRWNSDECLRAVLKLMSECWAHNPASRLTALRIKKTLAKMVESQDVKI

off-target kinases [2] = biological target: off-target kinases (Homo sapiens, UniProt P10721); conditions: KIT, ZLYTE, ATP Km app
off-target kinases [3] = biological target: off-target kinases (Homo sapiens, UniProt Q9H2X6); conditions: HIPK2, ZLYTE, ATP Km app
Chain of off-target kinases (Homo sapiens, UniProt Q9H2X6) (Q9H2X6 whole entry): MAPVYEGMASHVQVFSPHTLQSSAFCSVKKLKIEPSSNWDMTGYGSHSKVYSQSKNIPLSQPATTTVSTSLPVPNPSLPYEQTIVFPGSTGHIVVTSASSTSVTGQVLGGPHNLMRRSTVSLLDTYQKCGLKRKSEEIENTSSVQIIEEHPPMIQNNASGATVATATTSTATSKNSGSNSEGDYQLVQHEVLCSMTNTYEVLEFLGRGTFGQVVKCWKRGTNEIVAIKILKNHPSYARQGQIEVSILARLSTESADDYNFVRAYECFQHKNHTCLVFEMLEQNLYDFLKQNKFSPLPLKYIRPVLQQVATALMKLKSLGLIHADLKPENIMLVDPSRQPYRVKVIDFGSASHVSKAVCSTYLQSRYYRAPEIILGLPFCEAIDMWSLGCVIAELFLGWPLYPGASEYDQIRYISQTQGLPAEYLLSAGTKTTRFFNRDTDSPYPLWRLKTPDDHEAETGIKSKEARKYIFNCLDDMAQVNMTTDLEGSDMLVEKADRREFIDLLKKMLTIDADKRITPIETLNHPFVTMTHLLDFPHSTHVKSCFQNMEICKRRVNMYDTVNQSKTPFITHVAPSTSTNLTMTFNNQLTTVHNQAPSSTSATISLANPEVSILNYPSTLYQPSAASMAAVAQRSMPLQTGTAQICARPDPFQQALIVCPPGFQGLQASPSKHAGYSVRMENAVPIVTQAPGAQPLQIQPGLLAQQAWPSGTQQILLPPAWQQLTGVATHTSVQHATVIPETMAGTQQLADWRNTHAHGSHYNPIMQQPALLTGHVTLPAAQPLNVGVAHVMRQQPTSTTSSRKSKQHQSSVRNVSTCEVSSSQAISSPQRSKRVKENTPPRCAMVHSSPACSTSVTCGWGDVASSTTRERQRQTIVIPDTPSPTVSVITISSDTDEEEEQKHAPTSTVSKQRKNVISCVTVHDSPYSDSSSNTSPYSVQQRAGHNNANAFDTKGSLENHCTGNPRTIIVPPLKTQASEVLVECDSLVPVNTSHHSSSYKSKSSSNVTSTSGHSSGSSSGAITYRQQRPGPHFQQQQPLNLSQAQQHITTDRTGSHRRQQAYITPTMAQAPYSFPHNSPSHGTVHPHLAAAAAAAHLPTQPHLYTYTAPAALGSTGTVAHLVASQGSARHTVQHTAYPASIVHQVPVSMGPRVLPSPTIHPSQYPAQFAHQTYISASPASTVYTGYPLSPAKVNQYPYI

off-target kinases [4] = biological target: T1, off-target kinases (Homo sapiens, UniProt P52564)
T1 sequence (P52564 1-334): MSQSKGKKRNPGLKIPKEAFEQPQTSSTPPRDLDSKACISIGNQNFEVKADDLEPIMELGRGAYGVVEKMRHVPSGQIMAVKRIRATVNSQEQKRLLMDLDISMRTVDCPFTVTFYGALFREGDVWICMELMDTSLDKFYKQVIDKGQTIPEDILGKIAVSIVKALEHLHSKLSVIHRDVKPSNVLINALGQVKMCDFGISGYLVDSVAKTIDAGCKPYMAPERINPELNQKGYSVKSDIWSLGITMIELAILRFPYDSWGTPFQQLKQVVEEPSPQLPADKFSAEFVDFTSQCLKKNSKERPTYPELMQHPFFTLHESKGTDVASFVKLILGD

off-target kinases [5] = biological target: off-target kinases (Homo sapiens, UniProt Q15303); conditions: ERBB4 (HER4), ZLYTE, ATP Km app
Chain of off-target kinases (Homo sapiens, UniProt Q15303) (Q15303 26-1308): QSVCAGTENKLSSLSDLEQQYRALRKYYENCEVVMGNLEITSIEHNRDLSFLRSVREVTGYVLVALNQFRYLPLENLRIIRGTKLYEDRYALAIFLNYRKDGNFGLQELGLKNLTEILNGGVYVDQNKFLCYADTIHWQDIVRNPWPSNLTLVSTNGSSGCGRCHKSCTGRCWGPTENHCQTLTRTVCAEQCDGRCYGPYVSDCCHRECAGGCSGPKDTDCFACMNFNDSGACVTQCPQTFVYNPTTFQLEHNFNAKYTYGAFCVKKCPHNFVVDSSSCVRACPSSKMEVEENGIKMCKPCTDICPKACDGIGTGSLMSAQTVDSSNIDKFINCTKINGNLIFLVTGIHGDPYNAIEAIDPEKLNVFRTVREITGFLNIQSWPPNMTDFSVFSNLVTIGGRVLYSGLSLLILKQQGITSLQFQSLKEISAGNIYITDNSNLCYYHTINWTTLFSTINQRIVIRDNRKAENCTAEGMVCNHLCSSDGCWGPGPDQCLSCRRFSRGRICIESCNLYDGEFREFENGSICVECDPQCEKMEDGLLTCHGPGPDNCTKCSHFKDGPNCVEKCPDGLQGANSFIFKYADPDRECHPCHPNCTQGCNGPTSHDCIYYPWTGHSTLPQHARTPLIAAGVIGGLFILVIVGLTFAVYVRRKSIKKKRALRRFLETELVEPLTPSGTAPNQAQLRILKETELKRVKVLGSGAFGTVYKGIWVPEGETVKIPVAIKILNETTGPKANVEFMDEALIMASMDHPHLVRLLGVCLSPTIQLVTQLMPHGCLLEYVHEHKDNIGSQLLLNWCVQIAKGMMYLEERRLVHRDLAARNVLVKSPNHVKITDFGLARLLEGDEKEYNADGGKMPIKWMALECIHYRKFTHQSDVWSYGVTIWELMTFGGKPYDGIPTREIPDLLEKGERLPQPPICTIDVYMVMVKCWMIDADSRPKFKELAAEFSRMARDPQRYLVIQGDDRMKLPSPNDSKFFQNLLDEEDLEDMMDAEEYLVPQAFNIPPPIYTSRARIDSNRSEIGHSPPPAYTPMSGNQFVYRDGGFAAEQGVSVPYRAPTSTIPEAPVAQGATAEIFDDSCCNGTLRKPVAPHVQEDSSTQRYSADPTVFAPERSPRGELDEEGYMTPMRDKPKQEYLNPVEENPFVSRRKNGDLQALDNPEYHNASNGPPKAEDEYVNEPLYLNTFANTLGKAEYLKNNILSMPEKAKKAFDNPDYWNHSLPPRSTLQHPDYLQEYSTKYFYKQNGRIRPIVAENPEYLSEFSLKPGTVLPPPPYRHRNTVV

off-target kinases [6] = biological target: off-target kinases (Homo sapiens, UniProt P51451); conditions: BLK, ATP Km app, ZLYTE
Chain of off-target kinases (Homo sapiens, UniProt P51451) (P51451 whole entry): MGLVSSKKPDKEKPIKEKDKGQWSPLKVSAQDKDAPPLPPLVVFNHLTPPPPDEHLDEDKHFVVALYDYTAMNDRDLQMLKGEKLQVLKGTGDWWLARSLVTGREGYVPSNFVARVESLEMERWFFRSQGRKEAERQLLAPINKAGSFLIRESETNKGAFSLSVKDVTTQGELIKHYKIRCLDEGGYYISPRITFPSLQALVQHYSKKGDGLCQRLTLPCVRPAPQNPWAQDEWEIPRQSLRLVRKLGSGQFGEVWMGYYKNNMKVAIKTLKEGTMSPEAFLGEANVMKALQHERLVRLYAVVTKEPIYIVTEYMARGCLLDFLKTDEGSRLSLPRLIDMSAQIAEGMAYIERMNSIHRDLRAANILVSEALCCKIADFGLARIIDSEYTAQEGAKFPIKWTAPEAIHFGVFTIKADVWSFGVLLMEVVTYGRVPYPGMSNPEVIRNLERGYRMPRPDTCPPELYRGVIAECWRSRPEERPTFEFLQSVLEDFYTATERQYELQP

off-target kinases [7] = biological target: off-target kinases (Homo sapiens, UniProt P21802); conditions: FGFR2, ZLYTE, ATP Km app
Chain of off-target kinases (Homo sapiens, UniProt P21802) (P21802 22-821): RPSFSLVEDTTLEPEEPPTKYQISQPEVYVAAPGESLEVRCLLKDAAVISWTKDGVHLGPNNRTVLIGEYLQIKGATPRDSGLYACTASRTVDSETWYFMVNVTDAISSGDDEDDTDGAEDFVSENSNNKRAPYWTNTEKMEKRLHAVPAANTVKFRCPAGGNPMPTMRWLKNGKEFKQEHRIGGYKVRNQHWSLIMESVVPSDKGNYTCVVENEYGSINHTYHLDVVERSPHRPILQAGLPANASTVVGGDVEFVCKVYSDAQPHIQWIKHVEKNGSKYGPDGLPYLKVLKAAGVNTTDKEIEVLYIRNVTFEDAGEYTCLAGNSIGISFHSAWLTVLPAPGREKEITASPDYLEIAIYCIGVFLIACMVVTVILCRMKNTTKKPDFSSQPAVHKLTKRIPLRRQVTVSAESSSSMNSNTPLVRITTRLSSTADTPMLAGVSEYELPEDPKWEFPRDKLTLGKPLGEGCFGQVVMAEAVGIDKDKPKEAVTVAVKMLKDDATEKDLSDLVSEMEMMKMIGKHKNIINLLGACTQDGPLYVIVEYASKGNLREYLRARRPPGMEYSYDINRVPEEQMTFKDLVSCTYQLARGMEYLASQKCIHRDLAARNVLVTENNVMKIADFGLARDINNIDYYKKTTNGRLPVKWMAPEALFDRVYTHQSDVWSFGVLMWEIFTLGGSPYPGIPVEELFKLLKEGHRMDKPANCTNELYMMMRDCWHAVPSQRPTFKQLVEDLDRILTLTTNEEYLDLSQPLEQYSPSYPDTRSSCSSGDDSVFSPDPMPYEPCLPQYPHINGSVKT

off-target kinases [8] = biological target: off-target kinases (Homo sapiens, UniProt P78368); conditions: CSNK1G2 (CK1 gamma 2); Cmpd1 1000 μM; ATP Km app; ZLYTE
Chain of off-target kinases (Homo sapiens, UniProt P78368) (P78368 whole entry): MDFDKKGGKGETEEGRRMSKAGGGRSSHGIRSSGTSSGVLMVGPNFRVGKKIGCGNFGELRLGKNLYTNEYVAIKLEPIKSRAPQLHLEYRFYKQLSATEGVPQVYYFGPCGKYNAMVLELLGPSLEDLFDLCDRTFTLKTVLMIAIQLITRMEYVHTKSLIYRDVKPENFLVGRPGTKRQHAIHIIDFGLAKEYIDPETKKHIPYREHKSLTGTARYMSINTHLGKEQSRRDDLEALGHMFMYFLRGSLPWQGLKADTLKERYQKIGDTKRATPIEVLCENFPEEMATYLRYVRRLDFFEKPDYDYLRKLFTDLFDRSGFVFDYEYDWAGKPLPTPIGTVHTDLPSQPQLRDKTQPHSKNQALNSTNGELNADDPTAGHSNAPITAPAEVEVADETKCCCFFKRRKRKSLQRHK

How did the inhibition (off-target kinases [1]; read-out: % Inhibition 1) turn out when `N#Cc1cc(-c2ncnc(Nc3ccc(N4CCN(C5COC5)CC4)cc3)n2)ccc1OC1CCOCC1` [Compound 1, 5-(4-((4-(4-(oxetan-3-yl)piperazin-1-yl)phenyl)amino)-1,3,5-triazin-2-yl)-2-((tetrahydro-2H-pyran-4-yl)oxy)benzonitrile] was run?
The inhibition was 51%.

What about the inhibition (off-target kinases [1]; read-out: % Inhibition 2) of the same compound?
The inhibition was 51%.

What about the inhibition (off-target kinases [1]; read-out: % Inhibition Avg) of the same compound?
The inhibition was 51%.

What about the inhibition (off-target kinases [2]; read-out: % Inhibition 1) of the same compound?
The inhibition was 1%.

What about the inhibition (off-target kinases [2]; read-out: % Inhibition 2) of the same compound?
The inhibition was 5%.

What about the inhibition (off-target kinases [2]; read-out: % Inhibition Avg) of the same compound?
The inhibition was 3%.

What about the inhibition (off-target kinases [3]; read-out: % Inhibition 1) of the same compound?
The inhibition was 21%.

And the inhibition (off-target kinases [3]; read-out: % Inhibition 2)?
The inhibition was 19%.

What about the inhibition (off-target kinases [3]; read-out: % Inhibition Avg) of the same compound?
The inhibition was 20%.

What about the inhibition (off-target kinases [4]; MAP2K6 (MKK6), LanthaScreen Binding, read-out: % Inhibition 2) of the same compound?
Its inhibition is 4%.

And the inhibition (off-target kinases [4]; MAP2K6 (MKK6), LanthaScreen Binding, read-out: % Inhibition Avg)?
The inhibition was 1%.

What about the inhibition (off-target kinases [4]; MAP2K6 (MKK6), ZLYTE, ATP 100, read-out: % Inhibition 1) of the same compound?
Its inhibition is 0%.

What about the inhibition (off-target kinases [4]; MAP2K6 (MKK6), ZLYTE, ATP 100, read-out: % Inhibition 2) of the same compound?
The inhibition was 19%.

What about the inhibition (off-target kinases [4]; MAP2K6 (MKK6), ZLYTE, ATP 100, read-out: % Inhibition Avg) of the same compound?
Its inhibition is 9%.

And the inhibition (off-target kinases [4]; read-out: % Inhibition 1)?
The inhibition was -2%.

And the inhibition (off-target kinases [5]; read-out: % Inhibition 1)?
The inhibition was 8%.

What about the inhibition (off-target kinases [5]; read-out: % Inhibition 2) of the same compound?
The inhibition was 5%.

What about the inhibition (off-target kinases [5]; read-out: % Inhibition Avg) of the same compound?
Its inhibition is 6%.

And the inhibition (off-target kinases [6]; read-out: % Inhibition 1)?
Its inhibition is 41%.

What about the inhibition (off-target kinases [6]; read-out: % Inhibition 2) of the same compound?
Its inhibition is 42%.

And the inhibition (off-target kinases [6]; read-out: % Inhibition Avg)?
The inhibition was 42%.

What about the inhibition (off-target kinases [7]; read-out: % Inhibition 1) of the same compound?
The inhibition was 12%.

What about the inhibition (off-target kinases [7]; read-out: % Inhibition 2) of the same compound?
The inhibition was 11%.

And the inhibition (off-target kinases [7]; read-out: % Inhibition Avg)?
Its inhibition is 12%.

What about the “% Inhibition 1” value (off-target kinases [8]) of the same compound?
Its value is −7%.

What about the “% Inhibition 2” value (off-target kinases [8]) of the same compound?
The value was −16%.

And the “% Inhibition Avg” value (off-target kinases [8])?
The value was −11%.
